Where two headings read alike, the source gives them in different places.
Assays:
[1] = tested on: False wireworm larvae (Eleodes suturalis); experiment: False Wireworm Control (treated soil, dust on talc); type: in vivo; conditions: 144 h, potting soil, mortality after 6 days, read-out: Percent Control of False Wireworms; for mortality at 1120.85 g/ha: 1 lbs./Acre; for mortality at 11208.5 g/ha: 10 lbs./Acre; for mortality at 56042.5 g/ha: 50 lbs./Acre
Method: (§1) Compounds are prepared as dusts on talc. The compounds are dissolved in acetone, and appropriate rates obtained by serial dilution. One and one-quarter milliliters of solution is pipetted onto a standard volume of dust in 1 -ounce jars, and the acetone allowed to evaporate. Twenty-five milliliters of moist soil and about three wheat seeds are placed in the jar, capped, and the contents thoroughly mixed. Ten False wireworm larvae (Eleodes suturalis ), 10 days old, are then placed in each jar. Mortality counts are made after 6 days and percent mortality determined.

[2] = tested on: Southern corn rootworm larvae (Diabrotica undecimpunctata); experiment: Southern Corn Rootworm Control (treated soil, dust on talc); type: in vivo; conditions: 144 h, potting soil, mortality after 6 days, read-out: Percent Control of Southern Corn Rootworm Larvae; for mortality at 1120.85 g/ha: 1 lbs./Acre; for mortality at 11208.5 g/ha: 10 lbs./Acre; for mortality at 56042.5 g/ha: 50 lbs./Acre
Method: as §1, with “200 millet” for “three wheat”, “capped” for “capped,”, “second-instar” for “False wireworm”, “of the Southern corn rootworm (Diabrotica undecimpunctata )” for “(Eleodes suturalis ), 10 days old,”

[3] = Mammalian Toxicity Studies (LD50 for Mice); set-up: species or system mice (Carworth Farms Nelson, CFI strain); conditions: mouse, in vivo; 14-day observation; corn oil
Method: (§2) Twenty male albino rats or mice of the Carworth Farms Nelson strain (CFI strain for mice)(or other suitable strain) weighing approximately 90 to 120 grams (18-20g. for mice) are selected. Basically, these animals are fasted 24 hours before dosing. Mice are not fasted.
(§3) For materials which are soluble or easily dispersed in an aqueous medium, a 20% solution or suspension is prepared in an aqueous solution of 0.2% agar and 0.1% "Tween" 80. The same series of dosages (grams or milliliters of material per kilogram of animal body weight) are used for all materials in this test. If no previous information is available on the compound or its analogs, a maximum dosage of 10 g/kg is selected to differ by a geometric factor of 2 from the preceding dose, i.e., 10, 5, 2.5, 1.25 g/kg. A sufficient number of dosages are given so as to bracket a 50% response. The animals are observed for several hours after dosing and daily over a 14-day observation period. At the end of this period the survivors are sacrificed, weighed and subjected to a gross autopsy. The results are tabulated and the LD50 is calculated by the method of moving averages using the tables constructed by Weil. [Weil, C. S., Biometrics, 8: (3), 249-263, 1952].
(§4) Samples received as liquids may be administered undiluted or as suspensions in aqueous Agar-Tween, depending on the viscosity of the material. If the material is believed to be relatively non-toxic, an initial maximum dosage of 10 ml/kg is selected and subsequent dosages are selected based upon the severity of gross signs of toxicity.
(§5) For organic phosphate anticholinesterase insecticides, the procedure is modified somewhat. The phosphates are readied for administration by preparing a solution or dispersion in corn oil (Mazola), the concentration of which is adjusted so that the total volume of the dose is 20 ml/kg ([…]) in every case. The initial solution is prepared by deciding upon the maximum dosage in mg/kg to be administered and preparing 50 ml. (10 in mouse test) of this solution of such a concentration that the desired dosage in mg/kg is delivered when 2 ml. (0.5 ml. in mouse test) of the solution is administered for 100 g (20 g in mouse) of rat body weight. Serial dilutions differing by a factor of two are then prepared for each lower dosage level.

[4] = Mammalian Toxicity Studies (LD50 for Rats); set-up: species or system male albino rats (Carworth Farms Nelson strain); conditions: rat, in vivo; 14-day observation; corn oil
Method: as §2, §3, §4, §5

[5] = tested on: Mites; experiment: Cut-Stem Systemic Test (Mites); type: in vivo; conditions: 100 ppm. emulsion, 3 days
Method: (§6) The compound to be tested is formulated as an emulsion containing 0.1 gram of test material, 0.2 gram of Alrodyne 315 emulsifier, 10 ml. of acetone and 90 ml. of water. This is diluted tenfold with water to give a 100 ppm. emulsion for the initial test. A sieva lima bean plant with only the primary leaves unfolded is cut off just above soil level and inserted into a 2-ounce bottle of 100 ppm. emulsion and held in place by a bit of cotton wrapped around the stem. The bottle is then placed in a ventilated box with the leaves extending outside the box, such that any possible fumes from the compound will be drawn out the end of the box rather than rising to affect the test leaves. After holding 3 days at 80° F. and 60% R.H., one leaf from each plant is placed on a moist filter paper in the bottom of a petri dish. Ten third-instar Southern armyworm larvae are then added to each dish and mortality counts made after holding another 3 days at 80° F. and 60% R.H.
The same procedure described above is employed in the mite systemic evaluation excepting that the sieva lima bean leaves are infested with mites, both adult and nymphs, while the leaves are in the ventilated box. After 3 days the leaves are removed and examined under a microscope to determine percent mortality. Data obtained are reported in the Table IV below where it can be seen that the compounds of the present invention are systemically effective insecticidal agents.

[6] = tested on: Southern armyworm larvae; experiment: Cut-Stem Systemic Test (Southern Armyworm); type: in vivo; conditions: Spodoptera eridania, 72 h, read-out: % Mortality, Southern Armyworms (Systemic Insecticidal Activity)
Method: as §6

[7] = tested on: Rats; set-up: unit not given here; conditions: Value reported in the literature; 20160 min; cited from earlier work
[8] = cut-stem, 100 ppm. emulsion, larvae held 3 days

Structure (SMILES) | mortality at 1120.85 g/ha [1] | mortality at 11208.5 g/ha [1] | mortality at 56042.5 g/ha [1] | mortality at 1120.85 g/ha [2] | mortality at 11208.5 g/ha [2] | mortality at 56042.5 g/ha [2] | LD50 at 336 h [3] | LD50 at 336 h [4] | % Mortality, Mites (Systemic Insecticidal Activity) [5] | mortality at 100 µg/mL [6] | mortality at 100 µg/mL [6, 8] | LD50 Rats [7]
CCOP(=S)(OCC)SCSC(C)(C)c1ccccc1 [Example 2, S-(α,α-Dimethylbenzylthio)methyl O,O-Diethyl Phosphorodithioate] | 0% | 100% | 100% | 90% | 100% | 100% | 71 mg/kg | 18 mg/kg | 80% | 100% | – | –
COP(=S)(OC)SCSC(C)(C)c1ccccc1 [Example 5, S-(α,α-Dimethylbenzylthio)methyl O,O-Dimethyl Phosphorodithioate] | 100% | 100% | 100% | 100% | 100% | 100% | 117 mg/kg | 28 mg/kg | – | – | – | –
CCOP(=S)(OCC)SCSC(C)(C)c1ccc(Cl)cc1 [Example 6, S-(p-Chloro-α,α-Dimethylbenzylthio)methyl O,O-Diethyl Phosphorodithioate] | – | – | – | 0% | 90% | 100% | – | 79 mg/kg | – | – | – | –
COP(=S)(OC)SCSC(C)(C)c1ccc(Cl)cc1 [Example 7, S-(p-Chloro-α,α-dimethylbenzylthio)methyl O,O-Dimethyl Phosphorodithioate] | – | – | – | 100% | 100% | 100% | – | 230 mg/kg | 100% | – | 100% | –
CCOP(=S)(OCC)SCSC(C)(C)c1ccc(Cl)c(Cl)c1 [Example 8, S-(3,4-Dichloro-α,α-dimethylbenzylthio)methyl O,O-Diethyl Phophorodithioate] | – | – | – | – | – | – | – | 100 mg/kg | 100% | – | 100% | –
COP(=S)(OC)SCSC(C)(C)c1ccc(Cl)c(Cl)c1 [Example 11, S-(3,4-Dichloro-α,α-dimethylbenzylthio)methyl O,O-Dimethyl Phosphorodithioate] | – | – | – | 100% | 100% | 100% | – | > 200 mg/kg | 30% | – | 90% | –
CCCSP(=O)(OCC)SCSC(C)(C)c1ccccc1 (stereo not drawn) [Example 12, S-(α,α-Dimethylbenzylthio)methyl O-Ethyl S-Propyl Phosphorodithioate] | – | – | – | 0% | 100% | 100% | – | 34 mg/kg | 90% | – | 0% | –
COP(=S)(OC)SCSC(C)(C)c1ccc(Br)cc1 [Example 13, S-(p-Bromo-α,α-dimethylbenzylthio)methyl O,O-Dimethyl Phosphordithioate] | – | – | – | 90% | 100% | 100% | – | 280 mg/kg | 100% | – | 100% | –
CCOP(=S)(OCC)SCSC(C)c1ccccc1 (stereo not drawn) [Example 15, S-(α-Methylbenzylthio)methyl O,O-Diethyl Phosphorodithioate] | 0% | 100% | 100% | 80% | 100% | 100% | 67 mg/kg | – | – | – | – | –
COP(=O)(SC)SCSC(C)(C)c1ccc(Cl)cc1 (stereo not drawn) [Example 16, S-(p-Chloro-α,α-dimethylbenzylthio)methyl O-Methyl S-Methyl Phosphorodithioate] | – | – | – | 0% | 100% | 100% | – | – | 30% | – | 0% | –
CC(C)OP(=S)(OC(C)C)SCSC(C)(C)c1ccccc1 [Example 20, S-(α,α-Dimethylbenzylthio)methyl O,O-diisopropylPhosphorodithioate] | – | 0% | 100% | – | 0% | 100% | – | – | – | – | – | –
COP(=S)(OC)SCSC(C)(C)c1cccc(Cl)c1Cl [Example 23, S-(2,3-Dichloro-α,α-dimethylbenzylthio)methyl O,O-Dimethyl Phosphorodithioate] | – | – | – | 60% | 90% | 100% | – | > 500 mg/kg | – | – | – | –
COP(=S)(OC)SCSC(C)(C)c1cc(Cl)ccc1Cl [Example 25, S-(2,5-Dichloro-α,α-dimethylbenzylthio)methyl O,O-Dimethyl Phosphorodithioate] | – | – | – | 0% | 100% | 100% | – | 800 mg/kg | – | – | – | –
CCOP(=S)(OCC)SC[S+]([O-])C(C)(C)c1ccccc1 (stereo not drawn) [Example 27, S-(α,α-Dimethylbenzylsulfinyl)methyl O,O-Diethyl Phosphorodithioate] | 0% | 100% | 100% | 0% | 100% | 100% | 88 mg/kg | – | – | – | – | –
CCOP(=S)(OCC)SCSCC [reference compound] | – | – | – | – | – | – | 5.6 mg/kg | 1 to 5 mg/kg | – | – | – | –
CCOP(=S)(OCC)SCSCc1ccccc1 [reference compound] | – | – | – | – | – | – | 67 mg/kg | – | – | – | – | 25
